Laboratory results reported in ChEMBL document CHEMBL5360557 (Eur J Med Chem, 2023).

target: T1, Cholinesterase (Homo sapiens, UniProt P06276); experiment: Inhibition of recombinant human BuChE using butyrylthiocholine iodide as substrate at 10 uM preincubated with enzyme for 5 mins followed by substrate addition and measured after 1 min by Ellman's method relative to control; conditions: time 6.0 min
T1 sequence (P06276 whole entry): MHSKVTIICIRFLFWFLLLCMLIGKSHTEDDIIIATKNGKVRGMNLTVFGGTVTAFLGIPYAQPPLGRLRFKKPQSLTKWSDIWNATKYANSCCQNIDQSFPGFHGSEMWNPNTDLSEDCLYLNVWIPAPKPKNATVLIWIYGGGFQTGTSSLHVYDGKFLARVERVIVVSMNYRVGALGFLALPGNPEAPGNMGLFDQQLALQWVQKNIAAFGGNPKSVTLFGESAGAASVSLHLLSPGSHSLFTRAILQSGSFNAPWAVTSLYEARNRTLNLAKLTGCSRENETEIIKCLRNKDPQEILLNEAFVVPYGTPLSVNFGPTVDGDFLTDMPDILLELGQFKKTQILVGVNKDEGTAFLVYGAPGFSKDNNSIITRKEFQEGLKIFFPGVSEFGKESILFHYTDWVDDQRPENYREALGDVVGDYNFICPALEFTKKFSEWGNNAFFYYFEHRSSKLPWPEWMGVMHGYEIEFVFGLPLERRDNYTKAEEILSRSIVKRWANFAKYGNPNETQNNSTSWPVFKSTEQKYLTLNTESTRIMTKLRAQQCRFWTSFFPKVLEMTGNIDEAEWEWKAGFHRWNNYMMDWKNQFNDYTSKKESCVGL

Point of comparison: `CCN(CCc1cccc(OC)c1)Cc1cccc(OC)c1OCc1ccccc1`, inhibition 88%. Against it:
- CCCN(CCCc1cccc(F)c1)Cc1cccc(OC)c1OCc1ccccc1 — higher, 97%
- CCCN(CCc1cccc(OC)c1)Cc1cccc(OC)c1OCc1ccccc1 — higher, 89%
- C#CCN(CCc1ccc(OCC=C)cc1)Cc1cccc(OC)c1OCc1ccccc1 — lower, 42%
- CCCN(CCCc1ccccc1)Cc1cccc(OC)c1OCc1ccccc1 — higher, 98%
- CCCN(CCc1ccc(OC)cc1)Cc1cccc(OC)c1OCc1ccccc1 — lower, 82%
- CCCN(C/C=C/c1ccccc1)Cc1cccc(OC)c1OCc1ccccc1 — higher, 97%
- COc1cccc(CNCCCCc2ccccc2)c1OCc1ccccc1 — higher, 94%
- CCN(CCc1ccc(O)cc1)Cc1cccc(OC)c1OCc1ccccc1 — higher, 94%
- CCCN(CCc1ccc(O)cc1)Cc1cccc(OC)c1OCc1ccccc1 — higher, 95%
- COc1cccc(CN(C)CCCc2ccccc2)c1OCc1ccccc1 — higher, 97%
- COc1cccc(CNC(C)CCc2ccccc2)c1OCc1ccccc1 (centres undefined) — higher, 97%
- C#CCN(CCc1ccc(O)cc1)Cc1cccc(OC)c1OCc1ccccc1 — lower, 78%
- CCCN(CCCc1ccccc1O)Cc1cccc(OC)c1OCc1ccccc1 — higher, 95%
- COc1cccc(CNCCCc2ccccc2)c1OCc1ccccc1 — higher, 97%
- C#CCN(CCc1ccccc1OC)Cc1cccc(OC)c1OCc1ccccc1 — lower, 35%
- C=CCOc1ccc(CCN(CC=C)Cc2cccc(OC)c2OCc2ccccc2)cc1 — lower, 71%
- CCN(CCc1ccccc1OC)Cc1cccc(OC)c1OCc1ccccc1 — higher, 94%
- CCCCCCCCCCCCCCN(CCCCc1ccccc1)Cc1cccc(OC)c1OCc1ccccc1 — lower, 25%
- C#CCOc1ccc(CCN(CC=C)Cc2cccc(OC)c2OCc2ccccc2)cc1 — lower, 64%
- COc1ccc(CCN(C)Cc2cccc(OC)c2OCc2ccccc2)cc1 — lower, 76%
- COc1ccc(CCNCc2cccc(OC)c2OCc2ccccc2)cc1 — higher, 94%
- CCCCCCN(CCCCc1ccccc1)Cc1cccc(OC)c1OCc1ccccc1 — lower, 78%
- COc1cccc(CNCc2ccccc2)c1OCc1ccccc1 — lower, 78%
- C#CCN(CCc1ccc(OC)cc1)Cc1cccc(OC)c1OCc1ccccc1 — lower, 66%

target: Acetylcholinesterase (Homo sapiens, UniProt P22303); experiment: Inhibition of recombinant human AChE using acetylthiocholine iodide as substrate preincubated with enzyme for 5 mins followed by substrate addition and measured after 1 min by Ellman's method; conditions: not given
Sequence (P22303 whole entry): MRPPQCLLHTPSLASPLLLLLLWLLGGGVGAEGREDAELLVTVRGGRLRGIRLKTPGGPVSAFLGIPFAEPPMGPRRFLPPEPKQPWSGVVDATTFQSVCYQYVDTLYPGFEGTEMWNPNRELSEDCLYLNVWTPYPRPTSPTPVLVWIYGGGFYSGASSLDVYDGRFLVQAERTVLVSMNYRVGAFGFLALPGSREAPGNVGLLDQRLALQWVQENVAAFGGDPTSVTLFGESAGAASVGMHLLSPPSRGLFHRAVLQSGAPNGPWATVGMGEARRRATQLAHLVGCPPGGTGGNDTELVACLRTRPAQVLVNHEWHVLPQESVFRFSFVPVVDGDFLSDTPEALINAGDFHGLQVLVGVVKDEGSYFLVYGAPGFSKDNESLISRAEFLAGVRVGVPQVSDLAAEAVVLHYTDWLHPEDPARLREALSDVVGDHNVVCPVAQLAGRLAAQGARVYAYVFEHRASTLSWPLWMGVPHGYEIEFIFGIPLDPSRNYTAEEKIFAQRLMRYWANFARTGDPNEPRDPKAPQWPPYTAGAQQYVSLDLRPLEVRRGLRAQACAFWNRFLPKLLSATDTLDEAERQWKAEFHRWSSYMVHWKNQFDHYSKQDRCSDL

`CCCN(CCCc1cccc(F)c1)Cc1cccc(OC)c1OCc1ccccc1` and `CCCN(CCCc1ccccc1)Cc1cccc(OC)c1OCc1ccccc1` cannot be ordered by IC50: greater than 10 µM for the first, greater than 10 µM for the second.

`CCCN(CCc1cccc(OC)c1)Cc1cccc(OC)c1OCc1ccccc1` and `CCN(CCc1cccc(OC)c1)Cc1cccc(OC)c1OCc1ccccc1` cannot be ordered by IC50: greater than 10 µM for the first, greater than 10 µM for the second.

`C#CCN(CCc1ccc(OCC=C)cc1)Cc1cccc(OC)c1OCc1ccccc1` and `C=CCOc1ccc(CCN(CC=C)Cc2cccc(OC)c2OCc2ccccc2)cc1` cannot be ordered by IC50: greater than 10 µM for the first, greater than 10 µM for the second.

`CCCN(CCc1ccc(OC)cc1)Cc1cccc(OC)c1OCc1ccccc1` and `C#CCN(CCc1ccc(OC)cc1)Cc1cccc(OC)c1OCc1ccccc1` cannot be ordered by IC50: greater than 10 µM for the first, greater than 10 µM for the second.

`CCCN(C/C=C/c1ccccc1)Cc1cccc(OC)c1OCc1ccccc1` and `COc1cccc(CN(C)CCCc2ccccc2)c1OCc1ccccc1` cannot be ordered by IC50: greater than 10 µM for the first, greater than 10 µM for the second.

`COc1cccc(CNCCCCc2ccccc2)c1OCc1ccccc1` and `COc1cccc(CNCCCc2ccccc2)c1OCc1ccccc1` cannot be ordered by IC50: greater than 10 µM for the first, greater than 10 µM for the second.

`CCN(CCc1ccc(O)cc1)Cc1cccc(OC)c1OCc1ccccc1` and `CCCN(CCc1ccc(O)cc1)Cc1cccc(OC)c1OCc1ccccc1` cannot be ordered by IC50: greater than 10 µM for the first, greater than 10 µM for the second.

`COc1cccc(CNC(C)CCc2ccccc2)c1OCc1ccccc1` (centres undefined) and `COc1cccc(CNCc2ccccc2)c1OCc1ccccc1` cannot be ordered by IC50: greater than 10 µM for the first, greater than 10 µM for the second.

`C#CCN(CCc1ccc(O)cc1)Cc1cccc(OC)c1OCc1ccccc1` and `C#CCOc1ccc(CCN(CC=C)Cc2cccc(OC)c2OCc2ccccc2)cc1` cannot be ordered by IC50: greater than 10 µM for the first, greater than 10 µM for the second.

`CCCN(CCCc1ccccc1O)Cc1cccc(OC)c1OCc1ccccc1` and `CCN(CCc1ccccc1OC)Cc1cccc(OC)c1OCc1ccccc1` cannot be ordered by IC50: greater than 10 µM for the first, greater than 10 µM for the second.

`C#CCN(CCc1ccccc1OC)Cc1cccc(OC)c1OCc1ccccc1` and `COc1ccc(CCN(C)Cc2cccc(OC)c2OCc2ccccc2)cc1` cannot be ordered by IC50: greater than 10 µM for the first, greater than 10 µM for the second.

`CCCCCCCCCCCCCCN(CCCCc1ccccc1)Cc1cccc(OC)c1OCc1ccccc1` and `CCCCCCN(CCCCc1ccccc1)Cc1cccc(OC)c1OCc1ccccc1` cannot be ordered by IC50: greater than 10 µM for the first, greater than 10 µM for the second.

With `COc1ccc(CCNCc2cccc(OC)c2OCc2ccccc2)cc1` the IC50 was greater than 10 µM.

target: T1, Cholinesterase; experiment: Inhibition of recombinant human BuChE using butyrylthiocholine iodide as substrate preincubated with enzyme for 5 mins followed by substrate addition and measured after 1 min by Ellman's method; conditions: not given

Point of comparison: `CCN(CCc1cccc(OC)c1)Cc1cccc(OC)c1OCc1ccccc1`, IC50 900 nM. Against it:
- CCCN(CCCc1cccc(F)c1)Cc1cccc(OC)c1OCc1ccccc1 — 23-fold lower, 39 nM
- CCCN(CCc1cccc(OC)c1)Cc1cccc(OC)c1OCc1ccccc1 — the same, 900 nM
- C#CCN(CCc1ccc(OCC=C)cc1)Cc1cccc(OC)c1OCc1ccccc1 — higher, > 10000 nM
- CCCN(CCCc1ccccc1)Cc1cccc(OC)c1OCc1ccccc1 — 22-fold lower, 40 nM
- CCCN(CCc1ccc(OC)cc1)Cc1cccc(OC)c1OCc1ccccc1 — 1.6-fold higher, 1400 nM
- CCCN(C/C=C/c1ccccc1)Cc1cccc(OC)c1OCc1ccccc1 — 22-fold lower, 40 nM
- COc1cccc(CNCCCCc2ccccc2)c1OCc1ccccc1 — 4.5-fold lower, 200 nM
- CCN(CCc1ccc(O)cc1)Cc1cccc(OC)c1OCc1ccccc1 — 3-fold lower, 300 nM
- CCCN(CCc1ccc(O)cc1)Cc1cccc(OC)c1OCc1ccccc1 — 10-fold lower, 90 nM
- COc1cccc(CN(C)CCCc2ccccc2)c1OCc1ccccc1 — 9-fold lower, 100 nM
- COc1cccc(CNC(C)CCc2ccccc2)c1OCc1ccccc1 (centres undefined) — 6.9-fold lower, 130 nM
- C#CCN(CCc1ccc(O)cc1)Cc1cccc(OC)c1OCc1ccccc1 — 2.1-fold higher, 1900 nM
- CCCN(CCCc1ccccc1O)Cc1cccc(OC)c1OCc1ccccc1 — 4.1-fold lower, 220 nM
- COc1cccc(CNCCCc2ccccc2)c1OCc1ccccc1 — 10-fold lower, 90 nM
- C#CCN(CCc1ccccc1OC)Cc1cccc(OC)c1OCc1ccccc1 — higher, > 10000 nM
- C=CCOc1ccc(CCN(CC=C)Cc2cccc(OC)c2OCc2ccccc2)cc1 — within 1.5-fold, 1300 nM
- CCN(CCc1ccccc1OC)Cc1cccc(OC)c1OCc1ccccc1 — within 1.5-fold, 700 nM
- CCCCCCCCCCCCCCN(CCCCc1ccccc1)Cc1cccc(OC)c1OCc1ccccc1 — higher, > 10000 nM
- C#CCOc1ccc(CCN(CC=C)Cc2cccc(OC)c2OCc2ccccc2)cc1 — 2.4-fold higher, 2200 nM
- COc1ccc(CCN(C)Cc2cccc(OC)c2OCc2ccccc2)cc1 — 3.6-fold higher, 3200 nM
- COc1ccc(CCNCc2cccc(OC)c2OCc2ccccc2)cc1 — 2.2-fold lower, 400 nM
- CCCCCCN(CCCCc1ccccc1)Cc1cccc(OC)c1OCc1ccccc1 — within 1.5-fold, 700 nM
- COc1cccc(CNCc2ccccc2)c1OCc1ccccc1 — 1.7-fold higher, 1500 nM
- C#CCN(CCc1ccc(OC)cc1)Cc1cccc(OC)c1OCc1ccccc1 — within 1.5-fold, 1300 nM

system: not listed separately; experiment: Cytotoxicity against human SH-SY5Y cells assessed as inhibition of cell growth incubated for 24 hrs by MTT assay; type: toxicity, cell-based; conditions: not given

Point of comparison: `CCCN(CCCc1cccc(F)c1)Cc1cccc(OC)c1OCc1ccccc1`, IC50 at 24 h 123 µM. Against it:
- CCCN(CCCc1ccccc1)Cc1cccc(OC)c1OCc1ccccc1 — not separable, > 63 µM
- CCCN(C/C=C/c1ccccc1)Cc1cccc(OC)c1OCc1ccccc1 — within 1.5-fold, 174 µM
- CCCN(CCc1ccc(O)cc1)Cc1cccc(OC)c1OCc1ccccc1 — 2.8-fold lower, 44 µM
- COc1cccc(CNCCCc2ccccc2)c1OCc1ccccc1 — 14-fold lower, 8.9 µM

system: not listed separately; experiment: Cytotoxicity against human HepG2 cells assessed as inhibition of cell growth incubated for 24 hrs by MTT assay; type: toxicity, cell-based; conditions: not given

Point of comparison: `CCCN(CCCc1ccccc1)Cc1cccc(OC)c1OCc1ccccc1`, IC50 at 24 h 48 µM. Against it:
- CCCN(CCCc1cccc(F)c1)Cc1cccc(OC)c1OCc1ccccc1 — within 1.5-fold, 41 µM
- CCCN(C/C=C/c1ccccc1)Cc1cccc(OC)c1OCc1ccccc1 — within 1.5-fold, 36 µM
- CCCN(CCc1ccc(O)cc1)Cc1cccc(OC)c1OCc1ccccc1 — within 1.5-fold, 43 µM

system: not listed separately; experiment: in vitro; conditions: PAMPA
Description: Permeability of the compound incubated for 3 to 6 hrs by PAMPA-BBB assay

Point of comparison: `COc1cccc(CNCCCc2ccccc2)c1OCc1ccccc1`, Papp 21 ×10⁻⁶ cm/s. Against it:
- CCCN(CCCc1cccc(F)c1)Cc1cccc(OC)c1OCc1ccccc1 — within 1.5-fold, 27 ×10⁻⁶ cm/s
- CCCN(CCCc1ccccc1)Cc1cccc(OC)c1OCc1ccccc1 — 1.5-fold higher, 32 ×10⁻⁶ cm/s
- CCCN(C/C=C/c1ccccc1)Cc1cccc(OC)c1OCc1ccccc1 — 2-fold higher, 41 ×10⁻⁶ cm/s
- CCCN(CCc1ccc(O)cc1)Cc1cccc(OC)c1OCc1ccccc1 — 1.5-fold lower, 14 ×10⁻⁶ cm/s
